The values that follow come from ChEMBL document CHEMBL1208764, “Morroniside cinnamic acid conjugate as an anti-inflammatory agent” (Bioorg Med Chem Lett, 2010).

Active and inactive are the calls of the source. No cut-off for these calls is given here.

Data set [1] deals with HUVEC. Nature of the data set: Antiinflammatory activity in HUVEC assessed as inhibition of TNF-alpha-induced E-selection expression at 10-1000 ug/ml after 2 hrs by ELISA. The note with it: Homo sapiens. In kind it is functional, cell-based.
Data set [2] concerns HUVEC. The experiment in a line: Cytotoxicity against HUVEC assessed as LDH release at 10-1000 ug/ml after 2 hrs. The note with it: human. In kind it is cell-based.
The test system of data set [3] is HUVEC. The experiment in a line: Antiinflammatory activity in HUVEC assessed as inhibition of TNF-alpha-induced E-selection expression after 2 hrs by ELISA. In kind it is functional, cell-based. The note with it: Homo sapiens.

`COC(=O)C1=CO[C@@H](O[C@@H]2O[C@H](CO)[C@@H](O)[C@H](O)[C@H]2O)[C@@H]2[C@H](C)O[C@@H](OC)C[C@H]12`: in the data set with HUVEC [1], the inhibition result is “inactive”. In the data set with HUVEC [2], the Activity result is “Non-toxic”. Turning to `C[C@]1(OC(=O)/C=C/c2ccccc2)C[C@@H](O)[C@]2(O)C=CO[C@@H](O[C@@H]3O[C@H](CO)[C@@H](O)[C@H](O)[C@H]3O)[C@@H]21` [HARPAGOSIDE], in the data set on HUVEC [3], the IC50 turned out to be 88.2 µM. On to `COC(=O)C1=CO[C@@H](O[C@@H]2O[C@H](CO)[C@@H](O)[C@H](O)[C@H]2O)[C@@H]2[C@H](C)O[C@@H](O)C[C@H]12` [MORRONISIDE], for which, in the data set on HUVEC [1], the inhibition result was “inactive”. For the same compound, the Activity entry in the data set with HUVEC [2] is listed as “Non-toxic”.
